A word on the solubility: it is the dissolved amount per volume that the medium holds.

Read-outs that look alike come from different tables or passages of the source.

The results in this text go back to patent US10584122B2, “Solid forms of a compound modulating kinases” (Plexxikon Inc., priority 2015, dated 2020).

Data set [1] is described as follows: Physical stability, stress experiments (temperature/RH) with XRPD. In kind it is physicochemical. Particulars: for Physical stability (overall finding): at the conditions investigated, HCl salt.
The nature of data set [2]: Dynamic vapor sorption/desorption (DVS). In kind it is physicochemical. The conditions noted are these: for Solid form after DVS, by XRPD: after sorption/desorption; for DVS weight loss upon equilibration: equilibration at 5% RH. The source says: Moisture sorption/desorption data were collected on a VTI SGA-100 Vapor Sorption Analyzer under a nitrogen purge. […] Data were not corrected for the initial moisture content of the samples. Sodium chloride and polyvinypyrrolidine were used as calibration standards.

Data set [3] in a line: Slurry experiment, form conversion by XRPD. In kind it is physicochemical. Particulars: slurried in ethanol for 21 days. The protocol:
Solutions were prepared by adding enough solids to a given solvent so that excess solids were present. The mixture was then agitated in a sealed vial at either ambient or a set temperature.

Another data set is described as follows: physchem. The conditions noted are these: water, thermodynamic from solid.

Turning to `Cl.FC(F)(F)c1ccc(CNc2ccc(Cc3c[nH]c4ncc(Cl)cc34)cn2)cn1` [Compound I Form A, [5-(5-chloro-1H-pyrrolo[2,3-b]pyridin-3-ylmethyl)-pyridin-2-yl]-(6-trifluoromethyl-pyridin-3-ylmethyl)-amine HCl salt], the “XRPD Result (solid form after stress)” value is “A + C” in data set [1] (40° C./75% RH/14 d), “converted to Form C” in data set [1] (80° C./7 d (<<100 mg)) and “A + minor C” in data set [1] (RT/85% RH/14 d). In addition, the “Physical stability (overall finding)” value in data set [1] (listed as Form A) is “physically metastable”. In data set [1] (elevated humidity), the “Form conversion on exposure to elevated humidity” value is on record as “partial conversion to Form C”. In data set [2] (above 75% RH), the “DVS additional weight gain, sorption step” value was found to be 1.7%. Further, the “Solid form after DVS, by XRPD” value in data set [2] (listed as Form A, HCl salt) is recorded as “Form A”. Moreover, in data set [2] (from 5% to 75% RH), the “DVS weight gain, sorption step” value was determined as 0.6%. In addition, the “Hygroscopicity (DVS isotherm)” value in data set [2] (listed as Form A, HCl salt) was “hygroscopic”. For the same compound, in data set [3], the “Form conversion on slurry” value is listed as “complete conversion to Form C”. Also, the solubility in “physchem” is < 2000 µg/mL.
Take `Cl.FC(F)(F)c1ccc(CNc2ccc(Cc3c[nH]c4ncc(Cl)cc34)cn2)cn1` [Compound I Form B, [5-(5-chloro-1H-pyrrolo[2,3-b]pyridin-3-ylmethyl)-pyridin-2-yl]-(6-trifluoromethyl-pyridin-3-ylmethyl)-amine HCl salt]: the “Form conversion on heating” value in data set [1] (about 150° C. for about 5 minutes) is “Desolvation/conversion to Form C”.
Regarding `Cl.FC(F)(F)c1ccc(CNc2ccc(Cc3c[nH]c4ncc(Cl)cc34)cn2)cn1` [Compound I Form C, [5-(5-chloro-1H-pyrrolo[2,3-b]pyridin-3-ylmethyl)-pyridin-2-yl]-(6-trifluoromethyl-pyridin-3-ylmethyl)-amine HCl salt], the “Physical stability (overall finding)” value in data set [1] (listed as Form C) is on record as “more physically stable than Form A”. Besides, in data set [2] (listed as Form C, HCl salt), the “Solid form after DVS, by XRPD” value is reported as “remained unchanged” and the “Hygroscopicity (DVS isotherm)” value is given as “less hygroscopic than Form A”. The “DVS weight gain, sorption step” value in data set [2] (from 5% to 95% RH) was found to be 0.96%.
Regarding `CO.Cl.FC(F)(F)c1ccc(CNc2ccc(Cc3c[nH]c4ncc(Cl)cc34)cn2)cn1` [Compound I Form D, [5-(5-chloro-1H-pyrrolo[2,3-b]pyridin-3-ylmethyl)-pyridin-2-yl]-(6-trifluoromethyl-pyridin-3-ylmethyl)-amine HCl salt methanol solvate], the “Form conversion on heating” value was “desolvated to Form A” in data set [1] (80° C. for 15 minutes) and “converted to Form C” in data set [1] (continued exposure to 80° C. for 2 days). Also, the “DVS weight loss, desorption phase” value in data set [2] (desorption phase) was determined as 0.9%. Also, the “DVS weight loss upon equilibration” value in data set [2] is given as “approximately 5.3%”. The “DVS weight gain, sorption phase” value in data set [2] (sorption phase) is 0.9%.
Consider `FC(F)(F)c1ccc(CNc2ccc(Cc3c[nH]c4ncc(Cl)cc34)cn2)cn1` [Compound II, [5-(5-chloro-1H-pyrrolo[2,3-b]pyridin-3-ylmethyl)-pyridin-2-yl]-(6-trifluoromethyl-pyridin-3-ylmethyl)-amine], for which, in data set [2], the “Hygroscopicity (DVS isotherm)” value is “hygroscopic” and the “DVS weight loss upon equilibration” value is given as 0.3-0.4%. The DVS weight gained in data set [2] (from 45% to 95% RH) is ~21.6%.
